The source of these data is ChEMBL document CHEMBL5331075, “New antileishmanial quinoline linked isatin derivatives targeting DHFR-TS and PTR1: Design, synthesis, and molecular modeling studies” (Eur J Med Chem, 2023).

Data set [1] concerns Leishmania major. Kind of data set: Antileishmanial activity against Leishmania major promastigotes assessed as parasite growth inhibition incubated for 24 hrs by Alamar blue staining based assay. It is filed as functional, organism-based. A general note: Alamar Blue is a resazurin reagent that responds to reducing activity.
The test system of data set [2] is Leishmania major. In words: Antileishmanial activity against Leishmania major amastigotes assessed as parasite growth inhibition incubated for 72 hrs by resazurin dye based assay. It is filed as functional, organism-based.
Data set [3] can be described thus: Cytotoxicity against African green monkey Vero cells assessed as reduction in cell viability incubated for 72 hrs by crystal violet staining based analysis. The format is toxicity. The following applies: chlorocebus sabaeus.
Data set [4] can be described thus: Selectivity index, ratio of CC50 for cytotoxicity against African green monkey Vero cells to IC50 for antileishmanial activity against Leishmania major amastigotes assessed as parasite growth inhibition. The format is toxicity, cell-based. As to conditions: read-out: Ratio CC50/IC50.
Data set [5] concerns Leishmania major. In words: Antileishmanial activity against Leishmania major promastigotes assessed as parasite growth inhibition incubated for 48 hrs. Also noted: scale not given: the % may be the effect or the level left. The format is functional.
Data set [6] deals with Leishmania major. In words: Antileishmanial activity against Leishmania major promastigotes assessed as parasite growth inhibition at 20 uM incubated for 48 hrs in presence of folic acid relative to control. It is filed as functional. On the set-up: scale not given: the % may be the effect or the level left.
The subject of data set [7] is Leishmania major. Kind of data set: Antileishmanial activity against Leishmania major promastigotes assessed as parasite growth inhibition at 100 uM incubated for 48 hrs in presence of folic acid relative to control. On the set-up: scale not given: the % may be the effect or the level left. The format is functional.
Data set [8] relates to Leishmania major. In words: Antileishmanial activity against Leishmania major promastigotes assessed as parasite growth inhibition at 20 uM incubated for 48 hrs in presence of folinic acid relative to control. The format is functional. On the set-up: scale not given: the % may be the effect or the level left.
Data set [9] concerns Leishmania major. Kind of data set: Antileishmanial activity against Leishmania major promastigotes assessed as parasite growth inhibition at 100 uM incubated for 48 hrs in presence of folinic acid relative to control. On the set-up: scale not given: the % may be the effect or the level left. The format is functional.

As a reminder, the IC50 is the concentration needed to halve the response being measured. In general, CC50 refers to the concentration at which the toxic effect on the cells reaches its halfway point.

Turning to `O=C1/C(=N/Nc2ccnc3cc(Cl)ccc23)c2cc(Br)ccc2N1Cc1ccccc1`, the IC50 was 5950 nM in data set [1] and 8.29 µM in data set [2].
The matching figures for `CC(C)CN1C(=O)/C(=N/Nc2ccnc3cc(Cl)ccc23)c2cc(Cl)ccc21`: 3500 nM and 6.03 µM.
As to `CCN1C(=O)/C(=N\Nc2ccnc3cc(Cl)ccc23)c2ccccc21`, the IC50 in data set [1] amounted to 3450 nM; in [2], 5.85 µM.
For `O=C1Nc2c(F)cccc2/C1=N/Nc1ccnc2cc(Cl)ccc12`, the IC50 in data set [1] came to 1100 nM; in data set [2] it was 1.1 µM.
`CCCN1C(=O)/C(=N/Nc2ccnc3cc(Cl)ccc23)c2ccccc21`: the IC50 in data set [1] is 3160 nM; in data set [2], 5.49 µM.
In the same order, the values of `CN1C(=O)/C(=N/Nc2ccnc3cc(Cl)ccc23)c2cc(Br)ccc21` are 1740 nM and 3.46 µM.
The matching figures for `CCN1C(=O)/C(=N/Nc2ccnc3cc(Cl)ccc23)c2cc(Cl)ccc21`: 2960 nM and 4.34 µM.
In the same order, the values of `CCCN1C(=O)/C(=N/Nc2ccnc3cc(Cl)ccc23)c2cc(Cl)ccc21` are 2990 nM and 4.99 µM.
On to `O=C1/C(=N/Nc2ccnc3cc(Cl)ccc23)c2ccccc2N1Cc1ccccc1`, for which the results for the IC50 in data set [1] and in [2] were 3970 nM and 6.88 µM, respectively.
In the same order, the values of `O=C1Nc2ccc(Cl)cc2/C1=N/Nc1ccnc2cc(Cl)ccc12` are 670 nM and 1.26 µM.
As for `CCN1C(=O)/C(=N/Nc2ccnc3cc(Cl)ccc23)c2cc(Br)ccc21`, the IC50 in data set [1] was determined as 3210 nM; in data set [2] it was 5.12 µM.
As for `CN1C(=O)/C(=N\Nc2ccnc3cc(Cl)ccc23)c2ccccc21`, the IC50 in data set [1] was 1880 nM; in data set [2], 3.49 µM.
On to `O=C1Nc2ccc(F)cc2/C1=N/Nc1ccnc2cc(Cl)ccc12`, for which the results for the IC50 in data set [1] and in [2] were 557 nM and 0.721 µM, respectively. The CC50 at 72 h in data set [3] came out at 184 µM. Further, the selectivity ratio in data set [4] came to 255. Besides, the Activity in [5] worked out at 25%; in [6] it was 80%; in data set [7], 90%; in data set [8] it was 84%; in data set [9], 94%.
Consider `CN1C(=O)/C(=N/Nc2ccnc3cc(Cl)ccc23)c2cc(Cl)ccc21`, for which the IC50 was 1870 nM in data set [1] and 3.25 µM in data set [2].
In the same order, the values of `CC(C)CN1C(=O)/C(=N\Nc2ccnc3cc(Cl)ccc23)c2ccccc21` are 2670 nM and 3.99 µM.
The matching figures for `O=C1Nc2ccccc2/C1=N/Nc1ccnc2cc(Cl)ccc12`: 986 nM and 2.45 µM.
Consider `O=C1/C(=N/Nc2ccnc3cc(Cl)ccc23)c2cc(Cl)ccc2N1Cc1ccccc1`, for which the values for the IC50 in [1] and in [2] were 4000 nM and 5.3 µM, respectively.
For the molecule `O=C1Nc2ccc(OC(F)(F)F)cc2/C1=N/Nc1ccnc2cc(Cl)ccc12`, the IC50 was 668 nM in [1] and 0.944 µM in data set [2]. The CC50 at 72 h in [3] came to 308 µM. For the same molecule, the selectivity ratio in data set [4] turned out to be 326. Also, the Activity in [5] came to 28%; in data set [6], 86%; in [7], 93%; in data set [8], 96%; in [9], 98%.
As to `CC(C)CN1C(=O)/C(=N/Nc2ccnc3cc(Cl)ccc23)c2cc(Br)ccc21`, the IC50 was found to be 4110 nM in data set [1] and 6.86 µM in data set [2].
Consider `O=C1Nc2ccc(Br)cc2/C1=N/Nc1ccnc2cc(Cl)ccc12`, for which the IC50 came to 508 nM in data set [1] and 0.604 µM in data set [2]. Moreover, the CC50 at 72 h in [3] came out at 156 µM. In addition, the selectivity ratio in data set [4] was 258. Further, the Activity in [5] stood at 21%; in [6], 74%; in [7], 87%; in [8] it was 76%; in [9], 91%.
Turning to `COc1cc(Cc2cnc(N)nc2N)cc(OC)c1OC` [TRIMETHOPRIM], the Activity in [5] came out at 71%; in data set [7], 99%.
